In patent EP2468279A1, “Prokineticin 1 receptor agonists and their uses” (Université de Strasbourg, priority 2010, dated 2012):

Columns and labels:
Format in all cases: cell-based
PKR1 [1] = molecular target: T1, PKR1 (Homo sapiens, UniProt Q8TCW9); assay: Activation of PKR1 signalling pathway: intracellular calcium measured with Fluo 4-AM in CHO-K1 cells infected with adenovirus carrying PKR1 cDNA; conditions: CHO-K1 cells expressing PKR1, Fluo 4-AM fluorescence; Figure 5
T1 construct: expressed in transfected cells; host or cells: CHO-K1 cells, transfected with Lipofectamine2000
T1 sequence (Q8TCW9 whole entry): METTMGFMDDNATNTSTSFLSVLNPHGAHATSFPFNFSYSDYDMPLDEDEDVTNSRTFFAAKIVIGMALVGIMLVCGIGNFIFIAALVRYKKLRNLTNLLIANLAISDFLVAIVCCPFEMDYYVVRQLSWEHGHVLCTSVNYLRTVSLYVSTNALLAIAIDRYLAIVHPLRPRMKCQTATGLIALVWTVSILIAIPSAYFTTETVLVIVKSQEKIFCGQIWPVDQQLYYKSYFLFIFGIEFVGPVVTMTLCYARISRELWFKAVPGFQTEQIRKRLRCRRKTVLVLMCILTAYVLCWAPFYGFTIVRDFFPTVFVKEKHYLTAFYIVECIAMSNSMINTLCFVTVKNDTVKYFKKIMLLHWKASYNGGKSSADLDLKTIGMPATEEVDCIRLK
Protocol: CHO-K1 (Chinese Hamster Ovary) cells were infected with a adenovirus carrying PKR1 cDNA. Cells were then stimulated, 48h after infection, with or without IS1 agonists, at 37°C. Calcium imaging was conducted essentially as previously described (Horinouchi et al., 2007) In brief, Intracellular free calcium [Ca^2+]i was measured with the fluorescent Ca^2+ indicator dye Fluo 4-AM, the membrane-permeant acetoxymethyl ester form of Fluo 4 (Invitrogen). Changes in [Ca^2+]i were determined from variations in the fluorescence intensity of Fluo 4-AM. Briefly, trypsinized CHO-K1-PKR1 cells were seeded onto glass bottom culture dishes (MatTek, MA, USA) for 24 h. […] The fluorescence in the cells was excited at a wavelength of 488 nm and a series of images (total exposure time: 300 s) were acquired at 0.5s intervals at emission wavelength 518 nm. Data are presented as the fluorescence intensity of 3 randomly chosen cells within a randomly selected 40 × field. To evaluate the effect of IS1 compound on [Ca^2+]i in CHO-K-PKR1, the maximum change in fluorescence intensity upon addition of IS1 was measured and normalized to the baseline fluorescence obtained before IS 1 addition.

endothelial cells (H5V) = assay: Induction of in vitro angiogenesis: tube formation on Growth Factor Reduced Matrigel; conditions: serum free medium, 24h at 37°C, number of branching points, Figures 3 and 4
Protocol: Coronary endothelial cells (H5V cells) were maintained in DMEM supplemented with 10% heat inactivated Fetal Calf Serum (FCS), glutamine (1mM) under 5% CO2 at 37°C.
In order to evaluate the potential angiogenic activity of the PKR1 agonists, the test of Growth Factor Reduced Matrigel (GFR Matrigel) 24 well plate was performed. Matrigel leads to the differentiation of many cell types and induces the formation and organization of endothelial cells into capillary tubules. Twenty-four-well culture plates were coated with Matrigel and endothelial cells (H5V) were trypsin-harvested and seeded onto the coated plates at 10^5 cells per well in the serum free assay medium with PKR1 agonists, IS1 and prokineticin-2, and incubated at 37°C for 24h. Tube formation as two dimensional branched structures were observed using an inverted phase contrast microscope (Zeiss), and the number of branching points were quantified in per well from each sample. Each experiment was repeated at least three times. Images were captured at a magnification of X10 with a digital microscope camera system (Urayama K et al., 2007).

PKR1 [2] = molecular target: T1, PKR1; assay: PKR1 internalization in CHO-K1 cells transfected with GFP-PKR1, by confocal microscopy; conditions: Figure 6
Protocol: The capacity of agonist compounds to induce internalization of PKR1 was assessed. Therefore, CHO-K1 cells transfected with a plasmid encoding GFP-PKR1 (Green Fluorescent Protein-PKR1), in the presence of Lipofectamine2000 (Invitrogen), were used. Cells were stimulated, 48h after transfection, with or without agonist compound, at 37°C. GFP is a fluorescent protein fusion (26.9 kDa) which has a major excitation peak at a wavelength of 396 nm and a minor one at 472 nm. Its emission peak is at 504 nm which is in the lower green portion of the visible spectrum. Fluorescence allowed tracking the localization of PKR1 after stimulation by the agonist (membrane or subcellular). Cells were seeded in glass-bottom coated with polyL-lysine and receptor studies were performed in the presence of various PKR1-ligands. Samples were observed under a Leica confocal microscope (SP2 AOBS MP) with objective 63× at 37°C. Images were automatically recorded during 20 min, with increasing time intervals to avoid bleaching effects because of repetitive scanning. Reconstituted videos contained 42 images and lasted 2 second.

Structure (SMILES): O=C(NCc1cccnc1)C(=Cc1ccco1)NC(=O)c1ccccc1 [IS1]
- activation of the PKR1 signalling pathway (intracellular calcium release) (PKR1 [1]): able to activate the PKR1 signalling pathway
- in vitro angiogenesis (tube-like formation of the endothelial cells on Matrigel) (endothelial cells (H5V)): Induction of in vitro angiogenesis
- PKR1 internalization (PKR1 [2]; CHO cells GFP-PKR1, 48h after transfection, 37°C): induces its internalization
- specificity of interaction with PKR1 (PKR1 [2]; CHO cells GFP-PKR1): specifically interacts with PKR1
